Results from patent US20170037014A1, “FUNGICIDAL PYRAZOLES” (E. I. DU PONT DE NEMOURS AND COMPANY, priority 2014, published 2017).

System: Puccinia recondita f sp. tritici
Assay: Test A: wheat leaf rust, preventive spray on wheat seedlings, visual disease rating
Format: in vivo
Conditions: 50 ppm (*), 100 = 100% disease control, 0 = no control
From the text: General protocol for preparing test suspensions for Tests A-D: the test compounds were first dissolved in acetone in an amount equal to 3% of the final volume and then suspended at the desired concentration (in ppm) in acetone and purified water (50/50 mix by volume) containing 250 ppm of the surfactant Trem® 014 (polyhydric alcohol esters). The resulting test suspensions were then used in Tests A-D. The test suspension was sprayed to the point of run-off on wheat seedlings. The following day the seedlings were inoculated with a spore suspension of Puccinia recondita f sp. tritici (the causal agent of wheat leaf rust) and incubated in a saturated atmosphere at 20° C. for 24 h, and then moved to a growth chamber at 20° C. for 7 days, after which time visual disease ratings were made. In the Table, a rating of 100 indicates 100% disease control and a rating of 0 indicates no disease control (relative to the controls). A dash (−) indicates no test results. All results are for 250 ppm except where followed by an “*” which indicates 50 ppm, and where followed by an “**” which indicates 10 ppm

| SMILES | pest or weed control at 50 ppm [%] |
| --- | --- |
| CCC(C)c1c(C(O)c2c(Cl)cccc2Cl)c(C)nn1C (stereo not drawn) [Compound 24, α-(2,6-dichlorophenyl)-1,3-dimethyl-5-(1-methylpropyl)-1H-pyrazole-4-methanol] | 99 |

Same assay, conditions: 250 ppm, 100 = 100% disease control, 0 = no control

| SMILES | pest or weed control at 250 ppm [%] |
| --- | --- |
| Cc1nn(C)c(C2CCCCC2)c1C(O)c1ccc(F)cc1Cl (stereo not drawn) [Compound 8, α-(2-chloro-4-fluorophenyl)-5-cyclohexyl-1,3-dimethyl-1H-pyrazole-4-methanol] | 99 |
| CCC(C)c1c(C(O)c2ccc(F)cc2F)c(C)nn1C (stereo not drawn) [Compound 10, α-(2,4-difluorophenyl)-1,3-dimethyl-5-(1-methylpropyl)-1H-pyrazole-4-methanol] | 100 |
| Cc1nn(C)c(C2CCCCC2)c1C(O)c1ccc(F)cc1F (stereo not drawn) [Compound 11, 5-cyclohexyl-α-(2,4-difluorophenyl)-1,3-dimethyl-1H-pyrazole-4-methanol] | 99 |
| Cc1nn(C)c(C2CCCCC2)c1Oc1ccc(F)cc1Cl [Compound 12, 4-(2-chloro-4-fluorophenoxy)-5-cyclohexyl-1,3-dimethyl-1H-pyrazole] | 79 |

System: Septoria tritici
Assay: Test B: wheat leaf blotch, preventive spray on wheat seedlings, visual disease rating
Format: in vivo
Conditions: Zymoseptoria tritici, 50 ppm (*), 100 = 100% disease control, 0 = no control
From the text: General protocol for preparing test suspensions for Tests A-D: the test compounds were first dissolved in acetone in an amount equal to 3% of the final volume and then suspended at the desired concentration (in ppm) in acetone and purified water (50/50 mix by volume) containing 250 ppm of the surfactant Trem® 014 (polyhydric alcohol esters). The resulting test suspensions were then used in Tests A-D. The test suspension was sprayed to the point of run-off on wheat seedlings. The following day the seedlings were inoculated with a spore suspension of Septoria tritici (the causal agent of wheat leaf blotch) and incubated in a saturated atmosphere at 24° C. for 48 h, and then moved to a growth chamber at 20° C. for 19 days, after which time visual disease ratings were made. In the Table, a rating of 100 indicates 100% disease control and a rating of 0 indicates no disease control (relative to the controls). A dash (−) indicates no test results. All results are for 250 ppm except where followed by an “*” which indicates 50 ppm, and where followed by an “**” which indicates 10 ppm

| SMILES | pest or weed control at 50 ppm [%] |
| --- | --- |
| CCC(C)c1c(C(O)c2c(Cl)cccc2Cl)c(C)nn1C (stereo not drawn) [Compound 24, α-(2,6-dichlorophenyl)-1,3-dimethyl-5-(1-methylpropyl)-1H-pyrazole-4-methanol] | 69 |

Same assay, conditions: Zymoseptoria tritici, 250 ppm, 100 = 100% disease control, 0 = no control

| SMILES | pest or weed control at 250 ppm [%] |
| --- | --- |
| Cc1nn(C)c(C2CCCCC2)c1C(O)c1ccc(F)cc1Cl (stereo not drawn) [Compound 8, α-(2-chloro-4-fluorophenyl)-5-cyclohexyl-1,3-dimethyl-1H-pyrazole-4-methanol] | 99 |
| CCC(C)c1c(C(O)c2ccc(F)cc2F)c(C)nn1C (stereo not drawn) [Compound 10, α-(2,4-difluorophenyl)-1,3-dimethyl-5-(1-methylpropyl)-1H-pyrazole-4-methanol] | 99 |
| Cc1nn(C)c(C2CCCCC2)c1C(O)c1ccc(F)cc1F (stereo not drawn) [Compound 11, 5-cyclohexyl-α-(2,4-difluorophenyl)-1,3-dimethyl-1H-pyrazole-4-methanol] | 100 |
| Cc1nn(C)c(C2CCCCC2)c1Oc1ccc(F)cc1Cl [Compound 12, 4-(2-chloro-4-fluorophenoxy)-5-cyclohexyl-1,3-dimethyl-1H-pyrazole] | 19 |

System: Botrytis cinerea
Assay: Test C: tomato Botrytis, preventive spray on tomato seedlings, visual disease rating
Format: in vivo
Conditions: Botrytis cinerea, 50 ppm (*), 100 = 100% disease control, 0 = no control
From the text: General protocol for preparing test suspensions for Tests A-D: the test compounds were first dissolved in acetone in an amount equal to 3% of the final volume and then suspended at the desired concentration (in ppm) in acetone and purified water (50/50 mix by volume) containing 250 ppm of the surfactant Trem® 014 (polyhydric alcohol esters). The resulting test suspensions were then used in Tests A-D. The test suspension was sprayed to the point of run-off on tomato seedlings. The following day the seedlings were inoculated with a spore suspension of Botrytis cinerea (the causal agent of tomato Botrytis) and incubated in a saturated atmosphere at 20° C. for 48 h, and then moved to a growth chamber at 24° C. for 3 days, after which time visual disease ratings were made. In the Table, a rating of 100 indicates 100% disease control and a rating of 0 indicates no disease control (relative to the controls). A dash (−) indicates no test results. All results are for 250 ppm except where followed by an “*” which indicates 50 ppm, and where followed by an “**” which indicates 10 ppm

| SMILES | pest or weed control at 50 ppm [%] |
| --- | --- |
| CCC(C)c1c(C(O)c2c(Cl)cccc2Cl)c(C)nn1C (stereo not drawn) [Compound 24, α-(2,6-dichlorophenyl)-1,3-dimethyl-5-(1-methylpropyl)-1H-pyrazole-4-methanol] | 40 |

Same assay, conditions: Botrytis cinerea, 250 ppm, 100 = 100% disease control, 0 = no control

| SMILES | pest or weed control at 250 ppm [%] |
| --- | --- |
| Cc1nn(C)c(C2CCCCC2)c1C(O)c1ccc(F)cc1Cl (stereo not drawn) [Compound 8, α-(2-chloro-4-fluorophenyl)-5-cyclohexyl-1,3-dimethyl-1H-pyrazole-4-methanol] | 86 |
| CCC(C)c1c(C(O)c2ccc(F)cc2F)c(C)nn1C (stereo not drawn) [Compound 10, α-(2,4-difluorophenyl)-1,3-dimethyl-5-(1-methylpropyl)-1H-pyrazole-4-methanol] | 99 |
| Cc1nn(C)c(C2CCCCC2)c1C(O)c1ccc(F)cc1F (stereo not drawn) [Compound 11, 5-cyclohexyl-α-(2,4-difluorophenyl)-1,3-dimethyl-1H-pyrazole-4-methanol] | 99 |
| Cc1nn(C)c(C2CCCCC2)c1Oc1ccc(F)cc1Cl [Compound 12, 4-(2-chloro-4-fluorophenoxy)-5-cyclohexyl-1,3-dimethyl-1H-pyrazole] | 9 |

System: Blumeria graminis f sp. tritici
Assay: Test D: wheat powdery mildew, preventive spray on wheat seedlings, visual disease rating
Format: in vivo
Conditions: Blumeria graminis, 50 ppm (*), 100 = 100% disease control, 0 = no control
From the text: General protocol for preparing test suspensions for Tests A-D: the test compounds were first dissolved in acetone in an amount equal to 3% of the final volume and then suspended at the desired concentration (in ppm) in acetone and purified water (50/50 mix by volume) containing 250 ppm of the surfactant Trem® 014 (polyhydric alcohol esters). The resulting test suspensions were then used in Tests A-D. The test suspension was sprayed to the point of run-off on wheat seedlings. The following day the seedlings were inoculated with a spore dust of Blumeria graminis f sp. tritici, (also known as Erysiphe graminis f. sp. tritici, the causal agent of wheat powdery mildew) and incubated in a growth chamber at 20° C. for 8 days, after which time visual disease ratings were made. In the Table, a rating of 100 indicates 100% disease control and a rating of 0 indicates no disease control (relative to the controls). A dash (−) indicates no test results. All results are for 250 ppm except where followed by an “*” which indicates 50 ppm, and where followed by an “**” which indicates 10 ppm

| SMILES | pest or weed control at 50 ppm [%] |
| --- | --- |
| CCC(C)c1c(C(O)c2c(Cl)cccc2Cl)c(C)nn1C (stereo not drawn) [Compound 24, α-(2,6-dichlorophenyl)-1,3-dimethyl-5-(1-methylpropyl)-1H-pyrazole-4-methanol] | 84 |

Same assay, conditions: Blumeria graminis, 250 ppm, 100 = 100% disease control, 0 = no control

| SMILES | pest or weed control at 250 ppm [%] |
| --- | --- |
| Cc1nn(C)c(C2CCCCC2)c1C(O)c1ccc(F)cc1Cl (stereo not drawn) [Compound 8, α-(2-chloro-4-fluorophenyl)-5-cyclohexyl-1,3-dimethyl-1H-pyrazole-4-methanol] | 93 |
| CCC(C)c1c(C(O)c2ccc(F)cc2F)c(C)nn1C (stereo not drawn) [Compound 10, α-(2,4-difluorophenyl)-1,3-dimethyl-5-(1-methylpropyl)-1H-pyrazole-4-methanol] | 100 |
| Cc1nn(C)c(C2CCCCC2)c1C(O)c1ccc(F)cc1F (stereo not drawn) [Compound 11, 5-cyclohexyl-α-(2,4-difluorophenyl)-1,3-dimethyl-1H-pyrazole-4-methanol] | 97 |
| Cc1nn(C)c(C2CCCCC2)c1Oc1ccc(F)cc1Cl [Compound 12, 4-(2-chloro-4-fluorophenoxy)-5-cyclohexyl-1,3-dimethyl-1H-pyrazole] | 90 |

System: not given
Assay: not given
Conditions: not given

| SMILES | melting point [°C] |
| --- | --- |
| Cc1nn(C)c(C2CCCCC2)c1C(O)c1ccc(F)cc1Cl (stereo not drawn) [Compound 8, α-(2-chloro-4-fluorophenyl)-5-cyclohexyl-1,3-dimethyl-1H-pyrazole-4-methanol] | 146 to 149 |
| CCC(C)c1c(C(O)c2ccc(F)cc2F)c(C)nn1C (stereo not drawn) [Compound 10, α-(2,4-difluorophenyl)-1,3-dimethyl-5-(1-methylpropyl)-1H-pyrazole-4-methanol] | 118 to 121 |
| Cc1nn(C)c(C2CCCCC2)c1C(O)c1ccc(F)cc1F (stereo not drawn) [Compound 11, 5-cyclohexyl-α-(2,4-difluorophenyl)-1,3-dimethyl-1H-pyrazole-4-methanol] | 161 to 164 |
| Cc1nn(C)c(C2CCCCC2)c1Oc1ccc(F)cc1Cl [Compound 12, 4-(2-chloro-4-fluorophenoxy)-5-cyclohexyl-1,3-dimethyl-1H-pyrazole] | 75 to 79 |
| CCC(C)c1c(C(O)c2c(Cl)cccc2Cl)c(C)nn1C (stereo not drawn) [Compound 24, α-(2,6-dichlorophenyl)-1,3-dimethyl-5-(1-methylpropyl)-1H-pyrazole-4-methanol] | 175 to 178 |
